Laboratory results from patent publication US20220400680A1, “USE OF ACYLCYANAMIDES OR SALTS THEREOF FOR REGULATING PLANT GROWTH” (Alzchem Trostberg GmbH, priority 2019, published 2022).

Legend:
[1] = test system: Table cherry, type Burlat (C3); assay: Greenhouse test, cut cherry branches C3 dipped in test solution, bud development stage; type: in vivo, Prunus avium; set-up: key to Bud development stage, cherry branches C3: Stage 0: Buds unchanged; Stage 1: Buds slightly swollen, first green tips visible; Stage 2: strongly swollen, green buds; Stage 3: Buds before breaking open, leaf or flower root already visible; Stage 4: Flower buds fully developed, but still closed, white petals already visible. In the case of the grapevine, stage 4 was the unfolding of the first leaves; Stage 5: Flowers fully open or, in the case of grapevine, unfolding of the flower roots (“Gescheine”) on the fully leafed sprouts; settings: for Dormancy-breaking effect according to the definition, cherry C3: stage 4 reached or exceeded after 27 days vs negative control
Description: Greenhouse tests were conducted using cut fruit tree branches placed in water jars and maintained under controlled conditions with temperature regulation at approximately 22° C. and natural lighting. C3: Table Cherry, Type Burlat Table cherry: Prunus avium type Bigarreau Burlat or […] is a strong-growing somewhat sparse growing sweet cherry tree with horizontal side sprouts. The type has been known since 1930 and is one of the most important types in commercial cultivation. […] Medium but regular yields identify the type as a secondary type for early and dry areas. […] The test solutions were prepared directly, i.e. without intermediate preparation of a concentrate. For each of the test substances A-1 to A-13, an aqueous solution of 0.15 mol of the test substance and 0.15 g BreakThru® OE-446 was prepared and filled up to a total of 500 g with water. Of bis-cyanamides A-14 and A-15, 0.075 mol each was filled up to 500 g in an analogous manner. These test solutions (in combination with the above 4 species/types Cx) were given the test numbers Cx-A1 to Cx-A15. […] This was done with the following evaluation scale: • Stage 0: […] Flower buds fully developed, but still closed, white petals already visible. […] Flowers fully open or, in the case of grapevine, unfolding of the flower roots (“[…]”) on the fully leafed sprouts.

[2] = test system: Grape, type Pinot Noir (C4); assay: Greenhouse test, cut wine sprouts C4 dipped in test solution, bud development stage; type: in vivo, Vitis vinifera subsp. vinifera; set-up: key to Bud development stage, wine sprouts C4: Stage 0: Buds unchanged; Stage 1: Buds slightly swollen, first green tips visible; Stage 2: strongly swollen, green buds; Stage 3: Buds before breaking open, leaf or flower root already visible; Stage 4: Flower buds fully developed, but still closed, white petals already visible. In the case of the grapevine, stage 4 was the unfolding of the first leaves; Stage 5: Flowers fully open or, in the case of grapevine, unfolding of the flower roots (“Gescheine”) on the fully leafed sprouts
Description: Greenhouse tests were conducted using cut fruit tree branches placed in water jars and maintained under controlled conditions with temperature regulation at approximately 22° C. and natural lighting. C4: Grape, Type Pinot Noir Grape: Vitis vinifera subsp. vinifera type Pinot Noir is an important and high quality red wine type that has existed for possibly 2000 years. It is cultivated all over the world because the type produces high quality red wines and has sufficient winter frost resistance. The type requires early and good areas with deep, warm, medium-heavy and fertile soils with good water supply. Pinot Noir produces regular, medium-high to high yields. However, there are a large number of clones that differ in yield, berry size and looseness. […] The test solutions were prepared directly, i.e. without intermediate preparation of a concentrate. For each of the test substances A-1 to A-13, an aqueous solution of 0.15 mol of the test substance and 0.15 g BreakThru® OE-446 was prepared and filled up to a total of 500 g with water. Of bis-cyanamides A-14 and A-15, 0.075 mol each was filled up to 500 g in an analogous manner. These test solutions (in combination with the above 4 species/types Cx) were given the test numbers Cx-A1 to Cx-A15. […] This was done with the following evaluation scale: • Stage 0: […] Flower buds fully developed, but still closed, white petals already visible. […] Flowers fully open or, in the case of grapevine, unfolding of the flower roots (“[…]”) on the fully leafed sprouts.

[3] = test system: Table apple, type Boiken apple (C1); assay: Greenhouse test, cut apple branches C1 dipped in test solution, bud development stage; type: in vivo, Malus domestica; set-up: key to Bud development stage, apple branches C1: Stage 0: Buds unchanged; Stage 1: Buds slightly swollen, first green tips visible; Stage 2: strongly swollen, green buds; Stage 3: Buds before breaking open, leaf or flower root already visible; Stage 4: Flower buds fully developed, but still closed, white petals already visible. In the case of the grapevine, stage 4 was the unfolding of the first leaves; Stage 5: Flowers fully open or, in the case of grapevine, unfolding of the flower roots (“Gescheine”) on the fully leafed sprouts; settings: for Dormancy-breaking effect according to the definition, apple C1: stage 4 reached or exceeded after 36 days vs negative control
Description: Greenhouse tests were conducted using cut fruit tree branches placed in water jars and maintained under controlled conditions with temperature regulation at approximately 22° C. and natural lighting. C1: Table Apple, Type Boiken Apple Table apple: Malus domestica type Boiken first described in 1828 in Bremen after Deichvogt Boiken. Apple type for rough locations and for almost every soil suitable scattered fruit type, whereby heavy soils and not too warm locations are required. Tree growth initially strong, later medium. Older crowns become broadly spherical and are loosely branched. Flowering starting medium-late and long lasting, petals large with little pink. Yield starting late (October) and irregular; with long shelf life and pressure resistance. […] The test solutions were prepared directly, i.e. without intermediate preparation of a concentrate. For each of the test substances A-1 to A-13, an aqueous solution of 0.15 mol of the test substance and 0.15 g BreakThru® OE-446 was prepared and filled up to a total of 500 g with water. Of bis-cyanamides A-14 and A-15, 0.075 mol each was filled up to 500 g in an analogous manner. These test solutions (in combination with the above 4 species/types Cx) were given the test numbers Cx-A1 to Cx-A15. […] This was done with the following evaluation scale: • Stage 0: […] Flower buds fully developed, but still closed, white petals already visible. […] Flowers fully open or, in the case of grapevine, unfolding of the flower roots (“[…]”) on the fully leafed sprouts.

[4] = test system: Table apple, type Zabergäu-Renette (C2); assay: Greenhouse test, cut apple branches C2 dipped in test solution, bud development stage; type: in vivo, Malus domestica; set-up: key to Bud development stage, apple branches C2: Stage 0: Buds unchanged; Stage 1: Buds slightly swollen, first green tips visible; Stage 2: strongly swollen, green buds; Stage 3: Buds before breaking open, leaf or flower root already visible; Stage 4: Flower buds fully developed, but still closed, white petals already visible. In the case of the grapevine, stage 4 was the unfolding of the first leaves; Stage 5: Flowers fully open or, in the case of grapevine, unfolding of the flower roots (“Gescheine”) on the fully leafed sprouts
Description: Greenhouse tests were conducted using cut fruit tree branches placed in water jars and maintained under controlled conditions with temperature regulation at approximately 22° C. and natural lighting. C2: Table Apple, Type […] Table apple: Malus domestica type […] first developed in 1885 as a chance seedling in Hausen a.d. Zaber/Baden-Württemberg and initially grown as 'Hausener Graue […]'. No defined storage type; requires heavy soils (loam). Tree growth initially strong with oblique upright leading branches, later medium with flat branches. Crown broad and flat-spherical with flat fruiting wood. Leaves large, broad oval and with clearly separated tip. Triploid type with late and long-lasting flowering. Yield starting early, medium high and somewhat alternate. […] The test solutions were prepared directly, i.e. without intermediate preparation of a concentrate. For each of the test substances A-1 to A-13, an aqueous solution of 0.15 mol of the test substance and 0.15 g BreakThru® OE-446 was prepared and filled up to a total of 500 g with water. Of bis-cyanamides A-14 and A-15, 0.075 mol each was filled up to 500 g in an analogous manner. These test solutions (in combination with the above 4 species/types Cx) were given the test numbers Cx-A1 to Cx-A15. […] This was done with the following evaluation scale: • Stage 0: […] Flower buds fully developed, but still closed, white petals already visible. […] Flowers fully open or, in the case of grapevine, unfolding of the flower roots (“[…]”) on the fully leafed sprouts.

[5] = T1 (14 d), 0.15 mol (A-14, A-15: 0.075 mol) per 500 g solution
[6] = stage 4 reached or exceeded after 36 days vs negative control

SMILES | Bud development stage, cherry branches C3 [1, 5] | Bud development stage, cherry branches C3 ([1]; T2 (16 d)) | Bud development stage, cherry branches C3 ([1]; T3 (21 d)) | Bud development stage, cherry branches C3 ([1]; T4 (27 d)) | Bud development stage, cherry branches C3 ([1]; T5 (36 d)) | Bud development stage, cherry branches C3 ([1]; T6 (56 d)) | Bud development stage, wine sprouts C4 [2, 5] | Bud development stage, wine sprouts C4 ([2]; T2 (16 d)) | Bud development stage, wine sprouts C4 ([2]; T3 (21 d)) | Bud development stage, wine sprouts C4 ([2]; T4 (27 d)) | Bud development stage, wine sprouts C4 ([2]; T5 (36 d)) | Bud development stage, wine sprouts C4 ([2]; T6 (56 d)) | Bud development stage, apple branches C1 [3, 5] | Bud development stage, apple branches C1 ([3]; T2 (16 d)) | Bud development stage, apple branches C1 ([3]; T3 (21 d)) | Bud development stage, apple branches C1 ([3]; T4 (27 d)) | Bud development stage, apple branches C1 ([3]; T5 (36 d)) | Bud development stage, apple branches C1 ([3]; T6 (56 d)) | Bud development stage, apple branches C2 [4, 5] | Bud development stage, apple branches C2 ([4]; T2 (16 d)) | further results
CCCCCCCCCCCC(=O)NC#N.[Na] [Example A-10, Sodium dodecanoyl cyanamide] | 1 | 2 | 4 | 4 | 4 | 5 | 0 | 0 | 0 | 1 | 2 | 4 | 1 | 2 | 4 | 5 | 5 | 5 | 0 | 0 | Good to very good dormancy-breaking effect, cherry C3 ([1]; stage 4 reached or exceeded after 21 days vs negative control): good to very good dormancy-breaking effect; Dormancy-breaking effect according to the definition, cherry C3 [1]: dormancy-breaking effect; Good to very good dormancy-breaking effect, apple C1 ([3]; stage 4 reached or exceeded after 27 days vs negative control): good to very good dormancy-breaking effect; Dormancy-breaking effect according to the definition, apple C1 [3]: dormancy-breaking effect; Bud development stage, apple branches C2 ([4]; T3 (21 d)): 0; Bud development stage, apple branches C2 ([4]; T4 (27 d)): 1; Bud development stage, apple branches C2 ([4]; T5 (36 d)): 2; Bud development stage, apple branches C2 ([4]; T6 (56 d)): 4
N#CNC(=O)Cc1ccccc1.[Na] [Example A-12, Sodium phenylacetyl cyanamide] | 0 | 1 | 2 | 5 | 5 | 5 | 0 | 0 | 1 | 3 | 4 | 4 | 0 | 1 | 2 | 2 | 5 | 5 | 0 | 0 | Dormancy-breaking effect according to the definition, cherry C3 [1]: dormancy-breaking effect; Dormancy-breaking effect according to the definition, wine C4 [2, 6]: dormancy-breaking effect; Dormancy-breaking effect according to the definition, apple C1 [3]: dormancy-breaking effect; Bud development stage, apple branches C2 ([4]; T3 (21 d)): 3; Bud development stage, apple branches C2 ([4]; T4 (27 d)): 3; Bud development stage, apple branches C2 ([4]; T5 (36 d)): 4; Bud development stage, apple branches C2 ([4]; T6 (56 d)): 5; Dormancy-breaking effect according to the definition, apple C2 [4, 6]: dormancy-breaking effect
N#CN [cyanamide] | 2 | 4 | 5 | 5 | 5 | 5 | 0 | 0 | 2 | 5 | 5 | 5 | 3 | 4 | 5 | 5 | 5 | 5 | 0 | 0 | Bud development stage, apple branches C2 ([4]; T3 (21 d)): 3; Bud development stage, apple branches C2 ([4]; T4 (27 d)): 4; Bud development stage, apple branches C2 ([4]; T5 (36 d)): 5; Bud development stage, apple branches C2 ([4]; T6 (56 d)): 5
